Data reported in publication PMC9537276, “A pathway for chitin oxidation in marine bacteria” (Nature Communications, 2022).

Columns and labels:
OngC = target: T1, OngC (Pseudoalteromonas prydzensis, UniProt Z9U939ZVG8); assay: ammonia release assay kit; Q-TOF-MS; type: biochemical; details: 10 mM substrate (made in situ by OngB from GlcNAc1A), 10 mM Bis-Tris-HCl pH 7.5, 25 °C
T1 construct: full length, C-terminal His tag, pET22b, E. coli BL21 (DE3)
T1 sequence (Z9U939ZVG8 1-415): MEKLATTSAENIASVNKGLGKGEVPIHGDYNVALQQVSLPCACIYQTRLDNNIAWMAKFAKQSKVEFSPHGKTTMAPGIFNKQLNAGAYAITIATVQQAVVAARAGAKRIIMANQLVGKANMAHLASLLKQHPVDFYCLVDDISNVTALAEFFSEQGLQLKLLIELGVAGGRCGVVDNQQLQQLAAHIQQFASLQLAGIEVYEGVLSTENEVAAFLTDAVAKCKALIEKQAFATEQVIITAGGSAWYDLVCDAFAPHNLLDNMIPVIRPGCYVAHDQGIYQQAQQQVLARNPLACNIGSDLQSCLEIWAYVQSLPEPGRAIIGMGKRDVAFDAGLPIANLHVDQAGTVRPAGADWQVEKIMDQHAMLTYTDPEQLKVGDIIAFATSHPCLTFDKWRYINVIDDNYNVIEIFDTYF

OngB = target: T2, OngB (Pseudoalteromonas prydzensis, UniProt A0A7V1CY72); assay: acetate release assay kit; Q-TOF-MS; type: biochemical; details: 25 mM substrate, 10 mM Bis-Tris-HCl pH 7.5, 25 °C, 30 min
T2 construct: gene ENH88_07920; full length, C-terminal His tag, pET22b, E. coli BL21 (DE3)
T2 sequence (A0A7V1CY72 1-489): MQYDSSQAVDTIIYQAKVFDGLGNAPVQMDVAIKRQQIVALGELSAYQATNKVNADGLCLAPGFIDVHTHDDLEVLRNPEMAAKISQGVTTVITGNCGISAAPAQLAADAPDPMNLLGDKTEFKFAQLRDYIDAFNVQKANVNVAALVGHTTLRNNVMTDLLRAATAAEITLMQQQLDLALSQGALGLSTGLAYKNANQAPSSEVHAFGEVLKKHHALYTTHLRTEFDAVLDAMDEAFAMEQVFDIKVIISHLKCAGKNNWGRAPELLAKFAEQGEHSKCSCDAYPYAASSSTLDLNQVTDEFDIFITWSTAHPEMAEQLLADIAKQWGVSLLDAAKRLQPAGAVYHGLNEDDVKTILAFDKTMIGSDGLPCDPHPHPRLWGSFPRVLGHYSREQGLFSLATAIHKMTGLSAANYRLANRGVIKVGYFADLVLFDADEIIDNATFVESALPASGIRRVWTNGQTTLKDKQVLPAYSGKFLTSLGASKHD

Compound	ammonia release assay kit; Q-TOF-MS (OngC)	acetate release assay kit; Q-TOF-MS (OngB)
N[C@@H](C(=O)O)[C@@H](O)[C@H](O)[C@H](O)CO [GlcN1A, 2-(amino)-2-deoxy-D-gluconic acid]	OngC can deaminate GlcN1A to produce ammonia and KDG	
CC(=O)N[C@@H](C(=O)O)[C@@H](O)[C@H](O)[C@H](O)CO [GlcNAc1A, 2-(acetylamino)−2-deoxy-D-gluconic acid]		Only OngB was shown to act on GlcNAc1A to produce acetate
